{"source": "patent US4539149A", "about": "“β-Lactam antibacterial agents” (Beecham Group p.l.c., priority 1981, dated 1985)", "note": "Counter-ions that a name gives are not always drawn."}
{"system": "P. mirabilis 889", "test": "MIC against P. mirabilis 889", "type": "cell-based", "conditions": "P. mirabilis 889", "units": {"MIC against P. mirabilis 889": "µg/mL"}}
{"smiles": "CCN1CCN(C(=O)NC(C(=O)NC2(NC=O)C(=O)N3C(C(=O)[O-])C(C)(C)SC32)c2ccc(O)c(O)c2)C(=O)C1=O.[Na+]", "note": "(stereo not drawn) [Example 33, 6β-[2-[(4-Ethyl-2,3-dioxopiperazin-1-yl)carbonylamino]-2-(3,4-dihydroxyphenyl)acetamido]6α-formamidopenicillanic acid, sodium salt]", "MIC against P. mirabilis 889": 0.2}
{"system": "P. mirabilis 889", "test": "MIC against P. mirabilis 889", "type": "cell-based", "conditions": "Proteus mirabilis, 889", "units": {"MIC": "µg/mL"}}
{"smiles": "CNC(=O)C[C@@H](N)C(=O)N[C@@H](C(=O)N[C@]1(NC=O)C(=O)N2[C@@H](C(=O)O)C(C)(C)S[C@@H]21)c1ccc(O)cc1", "note": "[Example 50, 6β-[D-2-[D-2-amino-3-(N-methylcarbamoyl)propionamido]-2-(4-hydroxyphenyl)acetamido]-6α-formamidopenicillanic acid, sodium salt]", "MIC": 1}
{"system": "P. mirabilis 889", "test": "MIC against P. mirabilis 889", "type": "cell-based", "conditions": "Proteus mirabilis, 889, P. mirabilis 889", "units": {"MIC": "µg/mL"}}
{"smiles": "CC1(C)S[C@H]2N(C(=O)[C@@]2(NC=O)NC(=O)[C@H](NC(=O)N2CCN(N=Cc3ccco3)C2=O)c2ccc(O)cc2)[C@H]1C(=O)O", "note": "[Example 20, 6α-Formamido-6β-[D-2-[[3-(furan-2-ylmethyleneamino)-2-oxoimidazolidin-1-yl]carbonylamino]-2-(4-hydroxyphenyl)acetamido]penicillanic acid, sodium salt]", "MIC": 0.25}
{"smiles": "CC1(C)S[C@H]2N(C(=O)[C@@]2(NC=O)NC(=O)[C@H](NC(=O)[C@@H](Cc2ccccc2)NC(N)=O)c2ccc(O)cc2)[C@H]1C(=O)O", "note": "[Example 21, 6β-[D-2-(D-2-Carbamoylamino-3-phenylpropionamido)-2-(4-hydroxyphenyl)acetamido]-6α-formamidopenicillanic acid, sodium salt]", "MIC": 2.5}
{"smiles": "CC1(C)S[C@H]2N(C(=O)[C@@]2(NC=O)NC(=O)C(NC(=O)c2cc3ccccc3oc2=O)c2ccc(O)cc2)[C@H]1C(=O)O", "note": "(stereo partly drawn) [Example 22, 6β-[2-[(Coumarin-3-yl)carbonylamino]-2-(4-hydroxyphenyl)acetamido]-6α-formamidopenicillanic acid, sodium salt]", "MIC": 10}
{"smiles": "CC1(C)S[C@H]2N(C(=O)[C@@]2(NC=O)NC(=O)[C@H](NC(=O)N2CCN(S(C)(=O)=O)C2=O)c2ccc(O)cc2)[C@H]1C(=O)O", "note": "[Example 24, 6α-Formamido-6β-[D-2-(4-hydroxyphenyl)-2-[(3-methylsulphonyl-2-oxoimidazolidin-1-yl)carbonylamino]acetamido]penicillanic acid, sodium salt]", "MIC": 0.1}
{"smiles": "CCOC(=O)c1[nH]cnc1C(=O)N[C@@H](C(=O)N[C@]1(NC=O)C(=O)N2[C@@H](C(=O)O)C(C)(C)S[C@@H]21)c1ccc(O)cc1", "note": "[Example 25, 6β-[D-2-[(5-Ethoxycarbonylimadazol-4-yl)carbonylamino]-2-(4-hydroxyphenyl)acetamido]-6α-formamidopenicillanic acid, sodium salt]", "MIC": 10}
{"smiles": "CCN1CCN(C(=O)N[C@@H](C(=O)N[C@]2(NC=O)C(=O)N3[C@@H](C(=O)O)C(C)(C)S[C@@H]32)c2cccs2)C(=O)C1=O", "note": "[Example 26, 6β-[D-2-(4-Ethyl-2,3-dioxopiperazin-1-yl)carbonylamino]-2-(thien-2-yl)acetamido]-6α-formamidopenicillanic acid, sodium salt]", "MIC": 0.1}
{"smiles": "CCN1CCN(C(=O)N[C@H](C(=O)N[C@]2(NC=O)C(=O)N3[C@@H](C(=O)O)C(C)(C)S[C@@H]32)c2cccs2)C(=O)C1=O", "note": "[Example 27, 6β-[L-2-[(4-Ethyl-2,3-dioxopiperazin-1-yl)carbonylamino]-2-(thien-2-yl)acetamido]-6α-formamidopenicillanic acid sodium salt]", "MIC": 0.5}
{"smiles": "CCN1CCN(C(=O)N[C@@H](C(=O)N[C@]2(NC=O)C(=O)N3[C@@H](C(=O)O)C(C)(C)S[C@@H]32)[C@H](C)OCc2ccccc2)C(=O)C1=O", "note": "[Example 30, 6β-[(2R,3S)-3-Benzyloxy-2-[(4-ethyl-2,3-dioxopiperazin-1-yl)carbonylamino]butyramido]-6α-formamidopenicillanic acid, sodium salt]", "MIC": 100}
{"smiles": "CC1(C)S[C@H]2N(C(=O)[C@@]2(NC=O)NC(=O)[C@H](NC(=O)Nc2cnc(Nc3ccccc3)nc2O)c2ccc(O)cc2)[C@H]1C(=O)O", "note": "[Example 32, 6α-Formamido-6β-[D-2-(4-hydroxyphenyl)-2-[3-[4-hydroxy-2-(phenylamino)pyrimidin-5-yl]ureido]acetamido]penicillanic acid, sodium salt]", "MIC": 5}
{"smiles": "CC(=O)OCC1=C(C(=O)O)N2C(=O)[C@@](NC=O)(NC(=O)[C@H](N)c3ccccc3)[C@H]2SC1", "note": "[Example 35, 7β-(D-2-Amino-2-phenylacetamido)-7α-formamidocephalosporanic acid, trifluoroacetic acid salt]", "MIC": "> 100"}
{"smiles": "CCN1CCN(C(=O)N[C@@H](C(=O)N[C@]2(NC=O)C(=O)N3C(C(=O)O)=C(COC(C)=O)CS[C@@H]32)c2ccccc2)C(=O)C1=O", "note": "[Example 36, 7β-[D-2-[(4-Ethyl-2,3-dioxopiperazin-1-yl)carbonylamino]-2-phenylacetamido]-7α-Formamidocephalosporanic acid, sodium salt]", "MIC": 0.2}
{"smiles": "CC(=O)OCC1=C(C(=O)O)N2C(=O)[C@@](NC=O)(NC(=O)[C@H](NC(=O)N3CCN(S(C)(=O)=O)C3=O)c3ccccc3)[C@H]2SC1", "note": "[Example 38, 7α-Formamido-7β-[D-2-[[3-(methylsulphonyl)-2-oxoimidazolidin-1-yl]carbonylamino]-2-phenylacetamido]cephalosporanic acid, sodium salt]", "MIC": 1}
{"smiles": "CCN1CCN(C(=O)N[C@@H](C(=O)N[C@]2(NC=O)C(=O)N3C(C(=O)O)=C(COC(C)=O)CS[C@@H]32)c2ccc(O)cc2)C(=O)C1=O", "note": "[Example 39, 7β-[D-2-[(4-Ethyl-2,3-dioxopiperazin-1-yl)carbonylamino]-2-(4-hydroxyphenyl)acetamido]-7α-formamidocephalosporanic acid, sodium salt]", "MIC": 0.2}
{"smiles": "CCN1CCN(C(=O)N[C@H](C(=O)N[C@]2(NC=O)C(=O)N3C(C(=O)O)=C(COC(C)=O)CS[C@@H]32)c2ccc(O)cc2)C(=O)C1=O", "note": "[Example 40, 7β-[L-2-[(4-Ethyl-2,3-dioxopiperazin-1-yl)carbonylamino]-2-(4-hydroxyphenyl)acetamido]-7α-formamidocephalosporanic acid, sodium salt]", "MIC": 100}
{"smiles": "CCN1CCN(C(=O)N[C@@H](C(=O)N[C@]2(NC=O)C(=O)N3C(C(=O)O)=C(COC(C)=O)CS[C@@H]32)c2ccc(OC(C)=O)c(OC(C)=O)c2)C(=O)C1=O", "note": "[Example 41, 7β-[D-2-[(4-Ethyl-2,3-dioxopiperazin-1-yl)carbonylamino]-2-(3,4-diacetoxyphenyl)acetamido]-7α-formamidocephalosporanic acid, sodium salt]", "MIC": 0.1}
{"smiles": "CC(=O)OCC1=C(C(=O)O)N2C(=O)[C@@](NC=O)(NC(=O)Cc3cccs3)[C@H]2SC1", "note": "[Example 42, 7α-Formamido-7β-(thien-2-ylacetamido)cephalosporanic acid, sodium salt]", "MIC": 10}
{"smiles": "CC(=O)OCC1=C(C(=O)O)N2C(=O)[C@@](NC=O)(NC(=O)C(C(=O)O)c3ccsc3)[C@H]2SC1", "note": "(stereo partly drawn) [Example 43, 7β-[2-Carboxy-2-(thien-3-yl)acetamido]-7α-formamido cephalosporanic acid, disodium salt]", "MIC": 100}
{"smiles": "CCN1CCN(C(=O)N[C@@H](C(=O)N[C@]2(NC=O)C(=O)N3C(C(=O)O)=C(COC(C)=O)CS[C@@H]32)c2cccs2)C(=O)C1=O", "note": "[Example 44, 7β-[D-2-[(4-Ethyl-2,3-dioxopiperazin-1-yl)carbonylamino]-2-(thien-2-yl)acetamido]-7α-formamido-cephalosporanic acid, sodium salt]", "MIC": 0.1}
{"smiles": "CCN1CCN(C(=O)N[C@H](C(=O)N[C@]2(NC=O)C(=O)N3C(C(=O)O)=C(COC(C)=O)CS[C@@H]32)c2cccs2)C(=O)C1=O", "note": "[Example 45, 7β-[L-2-[(4-Ethyl-2,3-dioxopiperazin-1-yl)carbonylamino]-2-(thien-2-yl)acetamido]-7α-formamidocephalosporanic acid, sodium salt]", "MIC": 0.25}
{"smiles": "CC(=O)OCC1=C(C(=O)O)N2C(=O)[C@@](NC=O)(NC(=O)Cc3csc(N)n3)[C@H]2SC1", "note": "[Example 46, 7β-[2-(2-Aminothiazol-4-yl)acetamido]-7α-formamidocephalosporanic acid, trifluoroacetic acid salt]", "MIC": 100}
{"smiles": "CC1(C)S[C@H]2N(C(=O)[C@@]2(NC=O)NC(=O)[C@H](NC(=O)Nc2cc3ccccc3oc2=O)c2ccc(O)cc2)[C@H]1C(=O)O", "note": "[Example 47, 6β-[D-2-[3-(Coumarin-3-yl)ureido]-2-(4-hydroxyphenyl)acetamido]-6α-formamidopenicillanic acid, sodium salt]", "MIC": 100}
{"smiles": "CC1(C)S[C@H]2N(C(=O)[C@@]2(NC=O)NC(=O)[C@H](NC(=O)Nc2coc3ccccc3c2=O)c2ccc(O)cc2)[C@H]1C(=O)O", "note": "[Example 48, 6β-[D-2-[3-(4-Oxo-4H-1-benzopyran-3-yl)ureido]-2-(4-hydroxyphenyl)acetamido]-6α-formamidopenicillanic acid, sodium salt]", "MIC": 50}
{"smiles": "Cc1ccc2c(O)c(C(=O)N[C@@H](C(=O)N[C@]3(NC=O)C(=O)N4[C@@H](C(=O)O)C(C)(C)S[C@@H]43)c3ccc(O)cc3)cnc2n1", "note": "[Example 49, 6α-Formamido-6β-[D-2-[(4-hydroxy-7-methyl-1,8-naphthyridin-3-yl)carbonylamino]-2-(4-hydroxyphenyl)acetamido]penicillanic acid, sodium salt]", "MIC": 5}
{"smiles": "CC(=O)OCC1=C(C(=O)O)N2C(=O)[C@@](NC=O)(NC(=O)CSCC#N)[C@H]2SC1", "note": "[Example 51, 7β-[2-(Cyanomethylthio)acetamido]-7α-formamidocephalosporanic acid, sodium salt]", "MIC": 25}
{"smiles": "Cn1nnnc1SCC1=C(C(=O)O)N2C(=O)[C@@](NC=O)(NC(=O)Cc3cccs3)[C@H]2SC1", "note": "[Example 53, 7α-Formamido-7β-[2-(thien-2-yl)acetamido]-3-[(1-methyl-1H-tetrazol-5-yl)thiomethyl]ceph-3-em-4-carboxylic acid, sodium salt]", "MIC": 10}
{"smiles": "Cc1nnc(SCC2=C(C(=O)O)N3C(=O)[C@@](NC=O)(NC(=O)Cc4cccs4)[C@H]3SC2)s1", "note": "[Example 56, 7α-Formamido-7β-[2-(thien-2-yl)acetamido]-3-[(2-methyl-1,3,4-thiadiazol-5-yl)thiomethyl]ceph-3-em-4-carboxylate acid, sodium salt]", "MIC": 25}
